Values of other authors, collected in patent US8853275B2, “Concurrent therapy regime/regimen for the treatment of acne related diseases” (Galderma Research & Development, priority 2008, dated 2014).

Conditions: when combined with BPO; unlike tretinoin

Stability in the presence of light: stable in the presence of light
Structure (SMILES): COc1ccc(-c2ccc3cc(C(=O)O)ccc3c2)cc1C12CC3CC(CC(C3)C1)C2 [Adapalene, 6-[3-(1-adamantyl)-4-methoxyphenyl]-2-naphtoïc acid]
